Structures are written as SMILES. Some results are limits rather than exact numbers.

PARP7, sequence (Q7Z3E1 whole entry): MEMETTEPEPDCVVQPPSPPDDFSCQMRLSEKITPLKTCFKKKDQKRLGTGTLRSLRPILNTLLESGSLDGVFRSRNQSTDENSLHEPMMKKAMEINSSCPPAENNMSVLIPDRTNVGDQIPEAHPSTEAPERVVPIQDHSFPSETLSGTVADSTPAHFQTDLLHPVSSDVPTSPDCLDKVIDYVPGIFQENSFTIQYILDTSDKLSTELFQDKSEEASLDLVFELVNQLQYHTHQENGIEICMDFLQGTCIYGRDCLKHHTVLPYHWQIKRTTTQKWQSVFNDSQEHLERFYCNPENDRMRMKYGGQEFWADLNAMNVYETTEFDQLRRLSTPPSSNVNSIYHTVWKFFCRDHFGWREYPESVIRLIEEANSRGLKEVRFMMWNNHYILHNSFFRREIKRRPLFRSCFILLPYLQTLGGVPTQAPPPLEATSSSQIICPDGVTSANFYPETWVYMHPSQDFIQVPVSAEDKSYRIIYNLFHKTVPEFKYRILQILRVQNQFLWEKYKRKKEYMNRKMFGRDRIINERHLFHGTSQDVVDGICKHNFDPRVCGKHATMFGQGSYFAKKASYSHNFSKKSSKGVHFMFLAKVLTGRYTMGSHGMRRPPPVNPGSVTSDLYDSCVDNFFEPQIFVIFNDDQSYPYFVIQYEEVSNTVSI

This test addresses PARP7 (Homo sapiens (Human), UniProt Q7Z3E1). As to the kind of experiment: Enzymatic assay for inhibition of PARP7: TR-FRET displacement of biotinylated Probe A from the TIPARP active site. The test is classed as binding. To be noted: Table A-1. The gist of the method: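 Compounds were tested as dose-response series, and reactions were incubated a further 30 min at 25° C. TR-FRET was read at 320 nm excitation with 615 and 665 nm emission after a 90 μs delay. The 665/615 ratio gave the TIPARP–Probe A complex, and % inhibition was fitted against concentration.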
`C[C@H](O)[C@@H](COCCC(=O)N1CCN(c2ncc(C(F)(F)F)cn2)CC1)Nc1cn[nH]c(=O)c1C(F)(F)F` [Example 611, 5-[[(2R,3S)-3-Hydroxy-1-(3-oxo-3-[4-[5-(trifluoromethyl)pyrimidin-2-yl]piperazin-1-yl]propoxy)butan-2-yl]amino]-4-(trifluoromethyl)-2,3-dihydropyridazin-3-one]: the 50% inhibitory concentration (IC50) was below 100 nM.

On to `C[C@@H](COCCC(=O)N1CCN(c2cnc(C(F)(F)F)cn2)CC1)Nc1cn[nH]c(=O)c1C(F)(F)F` [Example 613, (S)-5-((1-(3-Oxo-3-(4-(5-(trifluoromethyl)pyrazin-2-yl)piperazin-1-yl)propoxy)propan-2-yl)amino)-4-(trifluoromethyl)pyridazin-3(2H)-one], for which the half-maximal inhibitory concentration (IC50) is below 100 nM.

In the case of `O=C(CCOC[C@H](Nc1cn[nH]c(=O)c1C(F)(F)F)[C@@H]1CCOC1)N1CCN(c2ncc(C(F)(F)F)cn2)CC1` [Example 614 Isomer D, 5-(((R)-2-(3-Oxo-3-(4-(5-(trifluoromethyl)pyrimidin-2-yl)piperazin-1-yl)propoxy)-1-((S)-tetrahydrofuran-3-yl)ethyl)amino)-4-(trifluoromethyl)pyridazin-3(2H)-one], the IC50 is below 100 nM.

`C[C@@H](CNCCC(=O)N1CCN(c2ncc(C(F)(F)F)cn2)CC1)Oc1cn[nH]c(=O)c1C(F)(F)F` [Example 615, (S)-5-((1-((3-Oxo-3-(4-(5-(trifluoromethyl)pyrimidin-2-yl)piperazin-1-yl)propyl)amino)propan-2-yl)oxy)-4-(trifluoromethyl)pyridazin-3(2H)-one] returned a concentration for half-maximal inhibition (IC50) of 100 to 1000 nM.

In the case of `C[C@@H](CN(C)CCC(=O)N1CCN(c2ncc(C(F)(F)F)cn2)CC1)Oc1cn[nH]c(=O)c1C(F)(F)F` [Example 616, (S)-5-((1-(Methyl(3-oxo-3-(4-(5-(trifluoromethyl)pyrimidin-2-yl)piperazin-1-yl)propyl)amino)propan-2-yl)oxy)-4-(trifluoromethyl)pyridazin-3(2H)-one], the half-maximal inhibitory concentration (IC50) is below 100 nM.

For the compound `C[C@@H](COCCC(=O)N1CCN(c2ncc(C(F)(F)F)cn2)CC1)Sc1cn[nH]c(=O)c1C(F)(F)F` [Example 618, (S)-5-((1-(3-Oxo-3-(4-(5-(trifluoromethyl)pyrimidin-2-yl)piperazin-1-yl)propoxy)propan-2-yl)thio)-4-(trifluoromethyl)pyridazin-3(2H)-one], the IC50 was below 100 nM.

With `C[C@@H](COCCS(=O)(=O)N1CCN(c2ncc(C(F)(F)F)cn2)CC1)Nc1cn[nH]c(=O)c1C(F)(F)F` [Example 620, (S)-4-(Trifluoromethyl)-5-((1-(2-((4-(5-(trifluoromethyl)pyrimidin-2-yl)piperazin-1-yl)sulfonyl)ethoxy)propan-2-yl)amino)pyridazin-3(2H)-one], the half-inhibitory concentration (IC50) is below 100 nM.

On to `C[C@@H](CSCCC(=O)N1CCN(c2ncc(C(F)(F)F)cn2)CC1)Oc1cn[nH]c(=O)c1C(F)(F)F` [Example 621A, (S)-5-((1-((3-Oxo-3-(4-(5-(trifluoromethyl)pyrimidin-2-yl)piperazin-1-yl)propyl)thio)propan-2-yl)oxy)-4-(trifluoromethyl)pyridazin-3(2H)-one], for which the half-maximal inhibitory concentration (IC50) is 100 to 1000 nM.

`C[C@H](CSCCC(=O)N1CCN(c2ncc(C(F)(F)F)cn2)CC1)Oc1cn[nH]c(=O)c1C(F)(F)F` [Example 621B, (R)-5-((1-((3-Oxo-3-(4-(5-(trifluoromethyl)pyrimidin-2-yl)piperazin-1-yl)propyl)thio)propan-2-yl)oxy)-4-(trifluoromethyl)pyridazin-3(2H)-one] showed an IC50 below 100 nM.

Turning to `C[C@@H](COCCC(=O)N1CCN(c2ncc(C(F)(F)F)s2)CC1)Nc1cn[nH]c(=O)c1C(F)(F)F` [Example 622, (S)-5-((1-(3-Oxo-3-(4-(5-(trifluoromethyl)thiazol-2-yl)piperazin-1-yl)propoxy)propan-2-yl)amino)-4-(trifluoromethyl)pyridazin-3(2H)-one], the 50% inhibitory concentration (IC50) was below 100 nM.

Compound `C[C@@H](COCCC(=O)N1CCN(c2ncc(C(C)(C)C)cn2)CC1)Nc1cn[nH]c(=O)c1C(F)(F)F` [Example 623, (S)-5-((1-(3-(4-(5-(Tert-butyl)pyrimidin-2-yl)piperazin-1-yl)-3-oxopropoxy)propan-2-yl)amino)-4-(trifluoromethyl)pyridazin-3(2H)-one] displayed an IC50 below 100 nM.

Regarding `COC[C@@H](COCCS(=O)(=O)N1CCN(c2ncc(C(F)(F)F)cn2)CC1)Nc1cn[nH]c(=O)c1C(F)(F)F` [Example 624, (S)-5-((1-Methoxy-3-(2-[(4-(5-(trifluoromethyl)pyrimidin-2-yl)piperazin-1-yl)sulfonyl)ethoxy)propan-2-yl)amino)-4-(trifluoromethyl)pyridazin-3(2H)-one], the IC50 is below 100 nM.

The compound `C[C@@H](COCCS(=O)(=O)N1CCN(c2ncc(C(F)(F)F)s2)CC1)Oc1cn[nH]c(=O)c1C(F)(F)F` [Example 625, (S)-4-(Trifluoromethyl)-5-((1-(2-[(4-(5-(trifluoromethyl)thiazol-2-yl)piperazin-1-yl)sulfonyl)ethoxy)propan-2-yl)oxy)pyridazin-3(2H)-one] showed an IC50 below 100 nM.

`C[C@@H](COCC(O)CN1CCN(c2ncc(C(F)(F)F)cn2)CC1)Nc1cn[nH]c(=O)c1C(F)(F)F` (stereo partly drawn) [Example 626, 5-(((2S)-1-(2-Hydroxy-3-(4-(5-(trifluoromethyl)pyrimidin-2-yl)piperazin-1-yl)propoxy)propan-2-yl)amino)-4-(trifluoromethyl)pyridazin-3(2H)-one] displayed an IC50 below 100 nM.

Turning to `O=C(CCNC[C@@H]1c2ccccc2CN1c1cn[nH]c(=O)c1C(F)(F)F)N1CCN(c2ncc(Cl)cn2)CC1` [Example 627, (S)-5-(1-(((3-(4-(5-Chloropyrimidin-2-yl)piperazin-1-yl)-3-oxopropyl)amino)methyl)isoindolin-2-yl)-4-(trifluoromethyl)pyridazin-3(2H)-one], the half-inhibitory concentration (IC50) was below 100 nM.

As to `O=C(CCNC[C@H]1c2ccccc2CN1c1cn[nH]c(=O)c1C(F)(F)F)N1CCN(c2ncc(Cl)cn2)CC1` [Example 628, (R)-5-(1-(((3-(4-(5-Chloropyrimidin-2-yl)piperazin-1-yl)-3-oxopropyl)amino)methyl)isoindolin-2-yl)-4-(trifluoromethyl)pyridazin-3(2H)-one], the concentration for half-maximal inhibition (IC50) is at least 1000 nM.

With `O=C(CCNC[C@@H]1c2ccccc2CN1c1cn[nH]c(=O)c1C(F)(F)F)N1CCN(c2ccc(C(F)(F)F)cn2)CC1` [Example 629, (S)-5-(1-(((3-Oxo-3-(4-(5-(trifluoromethyl)pyridin-2-yl)piperazin-1-yl)propyl)amino)methyl)isoindolin-2-yl)-4-(trifluoromethyl)pyridazin-3(2H)-one], the IC50 was below 100 nM.

As to `O=C(CCNC[C@H]1c2ccccc2CN1c1cn[nH]c(=O)c1C(F)(F)F)N1CCN(c2ccc(C(F)(F)F)cn2)CC1` [Example 630, (R)-5-(1-(((3-Oxo-3-(4-(5-(trifluoromethyl)pyridin-2-yl)piperazin-1-yl)propyl)amino)methyl)isoindolin-2-yl)-4-(trifluoromethyl)pyridazin-3(2H)-one], the IC50 is at least 1000 nM.

Compound `O=C(CCOC[C@H](CO)Nc1cn[nH]c(=O)c1C(F)(F)F)N1CCN(c2ccc(Cl)cn2)CC1` [Example 633, (S)-5-((1-(3-(4-(5-Chloropyridin-2-yl)piperazin-1-yl)-3-oxopropoxy)-3-hydroxypropan-2-yl)amino)-4-(trifluoromethyl)pyridazin-3(2H)-one] yielded an IC50 below 100 nM.

As to `C[C@@H](COCCCC(=O)N1CCN(c2ncc(C(F)(F)F)cn2)CC1)Nc1cn[nH]c(=O)c1C(F)(F)F` [Example 634, (S)-5-((1-(4-Oxo-4-(4-(5-(trifluoromethyl)pyrimidin-2-yl)piperazin-1-yl)butoxy)propan-2-yl)amino)-4-(trifluoromethyl)pyridazin-3(2H)-one], the 50% inhibitory concentration (IC50) is below 100 nM.

Turning to `C[C@H](O)[C@@H](COCCC(=O)N1CCN(c2ncc(C(F)(F)F)cn2)CC1)Nc1cn[nH]c(=O)c1C(F)(F)F` [Example 635, 5-(((2R,3S)-3-Hydroxy-1-(3-oxo-3-(4-(5-(trifluoromethyl)pyrimidin-2-yl)piperazin-1-yl)propoxy)butan-2-yl)amino)-4-(trifluoromethyl)pyridazin-3(2H)-one], the IC50 was below 100 nM.

`C[C@@H](COCCC(=O)N1CCN(c2ncc(C(F)(F)F)cn2)CC1)N(C)c1cn[nH]c(=O)c1Cl` [Example 636, (S)-4-Chloro-5-(methyl(1-(3-oxo-3-(4-(5-(trifluoromethyl)pyrimidin-2-yl)piperazin-1-yl)propoxy)propan-2-yl)amino)pyridazin-3(2H)-one] returned an IC50 of 100 to 1000 nM.

On to `O=C(CCOC[C@H](Cc1cccnc1)Nc1cn[nH]c(=O)c1C(F)(F)F)N1CCN(c2ncc(C(F)(F)F)cn2)CC1` [Example 637, (S)-5-((1-(3-Oxo-3-(4-(5-(trifluoromethyl)pyrimidin-2-yl)piperazin-1-yl)propoxy)-3-(pyridin-3-yl)propan-2-yl)amino)-4-(trifluoromethyl)pyridazin-3(2H)-one], for which the concentration for half-maximal inhibition (IC50) is below 100 nM.

On to `N#Cc1ccc(N2CCN(C(=O)C[C@H]3CC[C@H](COc4cn[nH]c(=O)c4C(F)(F)F)N3)CC2)nc1` [Example 638, 6-(4-(2-((2R,5R)-5-(((6-Oxo-5-(trifluoromethyl)-1,6-dihydropyridazin-4-yl)oxy)methyl)pyrrolidin-2-yl)acetyl)piperazin-1-yl)nicotinonitrile], for which the IC50 is 100 to 1000 nM.

In the case of `N#Cc1ccc(N2CCN(C(=O)C[C@@H]3CC[C@@H](COc4cn[nH]c(=O)c4C(F)(F)F)N3)CC2)nc1` [Example 639, 6-(4-(2-((2S,5S)-5-(((6-Oxo-5-(trifluoromethyl)-1,6-dihydropyridazin-4-yl)oxy)methyl)pyrrolidin-2-yl)acetyl)piprazin-1-yl)nicotinonitrile], the 50% inhibitory concentration (IC50) was at least 1000 nM.

`C[C@@H](CCOCCC(=O)N1CCN(c2ncc(C(F)(F)F)cn2)CC1)Nc1cn[nH]c(=O)c1C(F)(F)F` [Example 640, (S)-5-((4-(3-Oxo-3-(4-(5-(trifluoromethyl)pyrimidin-2-yl)piperazin-1-yl)propoxy)butan-2-yl)amino)-4-(trifluoromethyl)pyridazin-3(2H)-one] came in with an IC50 below 100 nM.

(Values after US10550105B2 (Ribon Therapeutics Inc., priority 2018, dated 2020).)
